According to PubChem BioAssay AID1259407 (Chemical Carcinogenesis Research Information System (CCRIS), 2018):
Activity calls are given as the source filed them. The rule behind the calls is not given here.

Test system: CCRIS mutagenicity, Ames/micronucleus/aberration tests
Experiment: CCRIS mutagenicity studies
[1] = Test System: AMES SALMONELLA TYPHIMURIUM, Strain/Indicator: TA98, Metabolic Activation: NONE, Method: STANDARD PLATE
[2] = Test System: AMES SALMONELLA TYPHIMURIUM, Strain/Indicator: TA100, Metabolic Activation: NONE, Method: STANDARD PLATE
[3] = Test System: AMES SALMONELLA TYPHIMURIUM, Strain/Indicator: TA1535, Metabolic Activation: NONE, Method: STANDARD PLATE
[4] = Test System: AMES SALMONELLA TYPHIMURIUM, Strain/Indicator: TA1537, Metabolic Activation: NONE, Method: STANDARD PLATE

Measured: mutagenic call

CC(C)(Oc1ccc(C(=O)c2ccc(Cl)cc2)cc1)C(=O)O
inactive: [1] inactive; negative | Test System: AMES SALMONELLA TYPHIMURIUM, Strain/Indicator: TA98, Metabolic Activation: RAT, LIVER, S-9, PHENOBARBITAL AND 5,6-BENZOFLAVONE, Method: STANDARD PLATE inactive; negative | [2] inactive; negative | Test System: AMES SALMONELLA TYPHIMURIUM, Strain/Indicator: TA100, Metabolic Activation: RAT, LIVER, S-9, PHENOBARBITAL AND 5,6-BENZOFLAVONE, Method: STANDARD PLATE inactive; negative | [3] inactive; negative | Test System: AMES SALMONELLA TYPHIMURIUM, Strain/Indicator: TA1535, Metabolic Activation: RAT, LIVER, S-9, PHENOBARBITAL AND 5,6-BENZOFLAVONE, Method: STANDARD PLATE inactive; negative | [4] inactive; negative | Test System: AMES SALMONELLA TYPHIMURIUM, Strain/Indicator: TA1537, Metabolic Activation: RAT, LIVER, S-9, PHENOBARBITAL AND 5,6-BENZOFLAVONE, Method: STANDARD PLATE inactive; negative | Test System: E. COLI, Strain/Indicator: WP2 UVRA, Metabolic Activation: NONE, Method: STANDARD PLATE inactive; negative | Test System: E. COLI, Strain/Indicator: WP2 UVRA, Metabolic Activation: RAT, LIVER, S-9, PHENOBARBITAL AND 5,6-BENZOFLAVONE, Method: STANDARD PLATE inactive; negative

NCc1cccc(CN)c1
inactive: Test System: AMES SALMONELLA TYPHIMURIUM, Strain/Indicator: TA98, Metabolic Activation: HAMSTER, LIVER, S-9, AROCLOR 1254, Method: STANDARD PLATE inactive; negative | Test System: AMES SALMONELLA TYPHIMURIUM, Strain/Indicator: TA98, Metabolic Activation: NONE, Method: PREINCUBATION inactive; negative | [1] inactive; negative | Test System: AMES SALMONELLA TYPHIMURIUM, Strain/Indicator: TA98, Metabolic Activation: RAT, LIVER, S-9, AROCLOR 1254, Method: STANDARD PLATE inactive; negative | Test System: AMES SALMONELLA TYPHIMURIUM, Strain/Indicator: TA98, Metabolic Activation: RAT, LIVER, S-9, PCB, Method: PREINCUBATION inactive; negative | Test System: AMES SALMONELLA TYPHIMURIUM, Strain/Indicator: TA98, Metabolic Activation: RAT, LIVER, S-9, PHENOBARBITAL AND BETA-NAPHTHOFLAVONE, Method: PREINCUBATION inactive; negative | Test System: AMES SALMONELLA TYPHIMURIUM, Strain/Indicator: TA100, Metabolic Activation: HAMSTER, LIVER, S-9, AROCLOR 1254, Method: STANDARD PLATE inactive; negative | Test System: AMES SALMONELLA TYPHIMURIUM, Strain/Indicator: TA100, Metabolic Activation: NONE, Method: PREINCUBATION inactive; negative | [2] inactive; negative | Test System: AMES SALMONELLA TYPHIMURIUM, Strain/Indicator: TA100, Metabolic Activation: RAT, LIVER, S-9, AROCLOR 1254, Method: STANDARD PLATE inactive; negative | Test System: AMES SALMONELLA TYPHIMURIUM, Strain/Indicator: TA100, Metabolic Activation: RAT, LIVER, S-9, PCB, Method: PREINCUBATION inactive; negative | Test System: AMES SALMONELLA TYPHIMURIUM, Strain/Indicator: TA100, Metabolic Activation: RAT, LIVER, S-9, PHENOBARBITAL AND BETA-NAPHTHOFLAVONE, Method: PREINCUBATION inactive; negative | Test System: AMES SALMONELLA TYPHIMURIUM, Strain/Indicator: TA102, Metabolic Activation: NONE, Method: PREINCUBATION inactive; negative | Test System: AMES SALMONELLA TYPHIMURIUM, Strain/Indicator: TA102, Metabolic Activation: RAT, LIVER, S-9, SODIUM PHENOBARBITAL AND 5,6-BENZOFLAVONE, Method: PREINCUBATION inactive; negative | Test System: AMES SALMONELLA TYPHIMURIUM, Strain/Indicator: TA104, Metabolic Activation: NONE, Method: PREINCUBATION inactive; negative | Test System: AMES SALMONELLA TYPHIMURIUM, Strain/Indicator: TA104, Metabolic Activation: RAT, LIVER, S-9, SODIUM PHENOBARBITAL AND 5,6-BENZOFLAVONE, Method: PREINCUBATION inactive; negative | Test System: AMES SALMONELLA TYPHIMURIUM, Strain/Indicator: TA1535, Metabolic Activation: HAMSTER, LIVER, S-9, AROCLOR 1254, Method: STANDARD PLATE inactive; negative | Test System: AMES SALMONELLA TYPHIMURIUM, Strain/Indicator: TA1535, Metabolic Activation: NONE, Method: PREINCUBATION inactive; negative | [3] inactive; negative | Test System: AMES SALMONELLA TYPHIMURIUM, Strain/Indicator: TA1535, Metabolic Activation: RAT, LIVER, S-9, AROCLOR 1254, Method: STANDARD PLATE inactive; negative | Test System: AMES SALMONELLA TYPHIMURIUM, Strain/Indicator: TA1535, Metabolic Activation: RAT, LIVER, S-9, PHENOBARBITAL AND BETA-NAPHTHOFLAVONE, Method: PREINCUBATION inactive; negative | Test System: AMES SALMONELLA TYPHIMURIUM, Strain/Indicator: TA1537, Metabolic Activation: HAMSTER, LIVER, S-9, AROCLOR 1254, Method: STANDARD PLATE inactive; negative | Test System: AMES SALMONELLA TYPHIMURIUM, Strain/Indicator: TA1537, Metabolic Activation: NONE, Method: PREINCUBATION inactive; negative | [4] inactive; negative | Test System: AMES SALMONELLA TYPHIMURIUM, Strain/Indicator: TA1537, Metabolic Activation: RAT, LIVER, S-9, AROCLOR 1254, Method: STANDARD PLATE inactive; negative | Test System: AMES SALMONELLA TYPHIMURIUM, Strain/Indicator: TA1537, Metabolic Activation: RAT, LIVER, S-9, PHENOBARBITAL AND BETA-NAPHTHOFLAVONE, Method: PREINCUBATION inactive; negative | Test System: AMES SALMONELLA TYPHIMURIUM, Strain/Indicator: TA1538, Metabolic Activation: HAMSTER, LIVER, S-9, AROCLOR 1254, Method: STANDARD PLATE inactive; negative | Test System: AMES SALMONELLA TYPHIMURIUM, Strain/Indicator: TA1538, Metabolic Activation: NONE, Method: STANDARD PLATE inactive; negative | Test System: AMES SALMONELLA TYPHIMURIUM, Strain/Indicator: TA1538, Metabolic Activation: RAT, LIVER, S-9, AROCLOR 1254, Method: STANDARD PLATE inactive; negative | Test System: E. COLI, Strain/Indicator: WP2UVRA/PKM101, Metabolic Activation: NONE, Method: PREINCUBATION inactive; negative | Test System: E. COLI, Strain/Indicator: WP2UVRA/PKM101, Metabolic Activation: RAT, LIVER, S-9, PHENOBARBITAL AND BETA-NAPHTHOFLAVONE, Method: PREINCUBATION inactive; negative | Test System: E. COLI, Strain/Indicator: WP2UVRA/PKM101, Metabolic Activation: RAT, LIVER, S-9, SODIUM PHENOBARBITAL AND 5,6-BENZOFLAVONE, Method: PREINCUBATION inactive; negative | Test System: E. COLI, Strain/Indicator: WP2UVRA, Metabolic Activation: NONE, Method: PREINCUBATION inactive; negative | Test System: E. COLI, Strain/Indicator: WP2UVRA, Metabolic Activation: RAT, LIVER, S-9, PHENOBARBITAL AND BETA-NAPHTHOFLAVONE, Method: PREINCUBATION inactive; negative | Test System: E. COLI, Strain/Indicator: WP2UVRA, Metabolic Activation: RAT, LIVER, S-9, SODIUM PHENOBARBITAL AND 5,6-BENZOFLAVONE, Method: PREINCUBATION inactive; negative | Test System: MOUSE LYMPHOMA, Strain/Indicator: L5178Y (TK+/TK-), Metabolic Activation: NONE, Method: SUSPENSION/PLATE inactive; negative. reevaluation of results: negative | Test System: MOUSE LYMPHOMA, Strain/Indicator: L5178Y (TK+/TK-), Metabolic Activation: RAT, LIVER, S-9, AROCLOR 1254, Method: SUSPENSION/PLATE inactive; negative. reevaluation of results: negative
